For test [1], the system named is HIV coding for mutant reverse transcriptase K103N/Y181C. As to the kind of experiment: ELISA (p24) assay of HIV replication in C8166 cell culture, K103N/Y181C virus. The test is classed as cell-based, HIV-1. The note with it: Human immunodeficiency virus 1, C8166, 72 h, read-out: EC50 K103N/Y181C. The method, then: (§1) Compounds of the invention were tested for their ability to inhibit HIV replication in cell culture in a 96-well plate assay. Complete RPMI 1640, consisting of RPMI 1640+10% fetal bovine serum, 10 μg/ml gentamycin and 10 μM β-mercaptoethanol was used for dilution of the compound as well as cell growth medium. The T lymphocyte cell line C8166 was infected at a multiplicity of infection of 0.001 with viruses coding for wild-type and mutant reverse transcriptase. Cells were then incubated for three days in the presence of serial dilutions of the compounds of the invention. The supernatant was pooled from eight replica wells and the concentration of extracellular p24 was determined using a commercially available HIV-1 p24 antigen assay kit (Beckman-Coulter®). The level of inhibition (% inhibition) was calculated with the following equation: [formula]

The target in test [2] is T1, HIV-1 RT Y188L (Human immunodeficiency virus type 1 group M subtype B, UniProt P03366, Y787L).
T1 construct: an HIV RT clone pKRT2 containing only the RT p66 gene regulated by the lac operon/trc promoter; made in house; host or cells: E. coli JM109, vector pKK233-2
As to the kind of experiment: Reverse transcriptase (RT) assay, Y188L mutant. The test is classed as biochemical. The text has this:
(§2) Among the enzymes for which Human Immunodeficiency Virus (HIV-1) encodes is a reverse transcriptase (1), so-named because it transcribes a DNA copy from an RNA template. This activity can be quantitatively measured in a cell-free enzyme assay and is based upon the observation that reverse transcriptase is able to use a synthetic template poly r(C) primed with a biotinylated oligo d(G) to transcribe a radio-labelled DNA strand utilising 3H-dGTP as a substrate. The assay described below utilises the wild-type enzyme (which is the predominant form of the enzyme observed in patients infected with HIV-1) and can also be used with mutant RT enzymes (for example, Y181C, prepared by site-directed mutagenesis in which the tyrosine residue at codon 181 has been replaced by a cysteine residue) in analogous assay conditions. This assay allows compounds to be evaluated for their effectiveness at inhibiting the mutant enzymes.
(§3) Some HIV-1 IIIB clone BH10 RT mutants were provided by Dr. C.-K. Shih (Boehringer Ingelheim Pharmaceutials Inc., U.S.A.) in the vector pKK233-2 (Pharmacia). Briefly an HIV RT clone pKRT2 containing only the RT p66 gene regulated by the lac operon/trc promoter was obtained from Dr. W. Summers (Yale University) (2). A variety of specific amino acid substitutions were introduced into the wild-type RT gene by site-directed mutagenesis. RT clones were subcloned into the pKK233-2 bacterial expression vector. Clones provided included wild-type, Val106Ala, Tyr181Cys, Tyr188Cys, Tyr188Leu, Gly190Ala and Pro236Leu. Others were made in-house by site-directed mutagenesis of the pKK233-2 RT clones including Lys103Asn, Lys103Asn/Tyr181Cys, Lys103Asn/Leu100Ile, Lys103Asn/Pro225His, and Lys103Asn/Val108Ile.
(§4) Purification of recombinant reverse transcriptase was performed using a combination of methods previously described (3). A single colony from a fresh plate of transformed JM109 cells was used to initiate growth of a pre-culture grown o/n at 37° C. Two liters of growth medium were inoculated with this pre-culture. At OD600˜1.5 (5-6 h at 37° C.), RT gene expression was induced with IPTG (1 mM final), and the fermentation was continued for a few more hours at 37° C. After centrifugation, supernatants were discarded while cell pellets were pooled and stored at −80° C. until purification. Cells were thawed at 4° C. overnight and suspended in lysis buffer (MES 50 mM pH 6, EDTA 1 mM, 10% v/v glyerol, 0.02% w/v OBG, 0.02% w/v sodium azide). Lysozyme was added and the mixture was incubated on ice for 40 minutes. After homogenization using a bounce in presence of lysozyme and sonication, the cells were centrifuged for 30 minutes. Supernatant (S1) was saved and stored at 4° C. The centrifuged pellet was resuspended in extraction buffer (MES 50 mM pH 6, KPO4 50 mM pH 6, KCl 100 mM, 10% v/v glycerol, 0.02% w/v OBG, 0.02% w/v sodium axide) and stirred for 30 minutes at 4° C. This second mixture was centrifuged again and the supernatant (S2) was saved. The above procedure was repeated 2 more times saving supernatants S3 and S4 and one last extraction was performed overnight (S5). Polymin P (0.005% final) was added to the combined supernatants to remove nucleic acids. This solution was stirred for 75 minutes at 4° C. and centrifuged for 1 h. The supernatant (SS1) was precipitated on ice with 20% w/v ammonium sulfate and stirred for 1 h at 4° C. The mixture was then centrifuged and the resulting supernatant (SS2) was precipitated with additional 40% w/v ammonium sulfate (60% total), stirred for 1 h and centrifuged again. The final pellet (P1) was stored overnight at 4° C. before undergoing purification the following day. All steps of the purification were performed at 4° C. unless otherwise stated.
(§5) Pellet (P1) was resuspended into MES 50 mM pH 6, KPO4 10 mM pH 6, KCl 100 mM, 10% v/v glycerol, 0.02% w/v OBG, 0.02% w/v sodium azide. The suspension was dialysis against the same buffer overnight using 12-14 kD MWCO dialysis tubing. […]

Test [3] addresses T2, HIV-1 RT V106A (Human immunodeficiency virus type 1 group M subtype B, UniProt P03366, V705A).
T2 construct: an HIV RT clone pKRT2 containing only the RT p66 gene regulated by the lac operon/trc promoter; made in house; host or cells: E. coli JM109, vector pKK233-2
As to the kind of experiment: Reverse transcriptase (RT) assay, V106A mutant. The test is classed as biochemical.
Description: as §2, §3, §4, §5

The target in test [4] is T3, HIV-1 RT K103N (Human immunodeficiency virus type 1 group M subtype B, UniProt P03366, K702N).
T3 construct: an HIV RT clone pKRT2 containing only the RT p66 gene regulated by the lac operon/trc promoter; made in house; host or cells: E. coli JM109, vector pKK233-2
As to the kind of experiment: Reverse transcriptase (RT) assay, K103N mutant. The test is classed as biochemical.
Description: as §2, §3, §4, §5

In test [5] the target is T4, HIV-1 RT K103N/L100I (Human immunodeficiency virus type 1 group M subtype B, UniProt P03366, K702N/L699I).
T4 construct: an HIV RT clone pKRT2 containing only the RT p66 gene regulated by the lac operon/trc promoter; made in house; host or cells: E. coli JM109, vector pKK233-2
As to the kind of experiment: Reverse transcriptase (RT) assay, K103N/L100I mutant. Format: biochemical.
Description: as §2, §3, §4, §5

In test [6] the target is T5, HIV-1 RT Y181C (Human immunodeficiency virus type 1 group M subtype B, UniProt P03366, Y780C).
T5 construct: an HIV RT clone pKRT2 containing only the RT p66 gene regulated by the lac operon/trc promoter; made in house; host or cells: E. coli JM109, vector pKK233-2
As to the kind of experiment: Reverse transcriptase (RT) assay, Y181C mutant. The test is classed as biochemical.
Description: as §2, §3, §4, §5

The test system of test [7] is HIV coding for wild-type reverse transcriptase (WT RT). As to the kind of experiment: ELISA (p24) assay of HIV replication in C8166 cell culture, wild-type RT virus. The test is classed as cell-based, HIV-1. The following applies: Human immunodeficiency virus 1, C8166, 72 h, read-out: EC50 WT RT. The method, then: as §1
A general note: An ELISA detects its analyte on a solid surface through an enzyme-linked reagent.

Test [8] has as its target T6, HIV-1 RT K103N/Y181C (Human immunodeficiency virus type 1 group M subtype B, UniProt P03366, K702N/Y780C).
T6 construct: an HIV RT clone pKRT2 containing only the RT p66 gene regulated by the lac operon/trc promoter; made in house; host or cells: E. coli JM109, vector pKK233-2
As to the kind of experiment: Reverse transcriptase (RT) assay, K103N/Y181C mutant. The test is classed as biochemical.
Description: as §2, §3, §4, §5

Test [9] concerns the target T7, HIV-1 RT K103N/P225H (Human immunodeficiency virus type 1 group M subtype B, UniProt P03366, K702N/P824H).
T7 construct: an HIV RT clone pKRT2 containing only the RT p66 gene regulated by the lac operon/trc promoter; made in house; host or cells: E. coli JM109, vector pKK233-2
As to the kind of experiment: Reverse transcriptase (RT) assay, K103N/P225H mutant. Format: biochemical.
Description: as §2, §3, §4, §5

Test [10] concerns the target T8, HIV-1 RT K103N/V108I (Human immunodeficiency virus type 1 group M subtype B, UniProt P03366, K702N/V707I).
T8 construct: an HIV RT clone pKRT2 containing only the RT p66 gene regulated by the lac operon/trc promoter; made in house; host or cells: E. coli JM109, vector pKK233-2
As to the kind of experiment: Reverse transcriptase (RT) assay, K103N/V108I mutant. Format: biochemical.
Description: as §2, §3, §4, §5

Test [11] concerns the target T9, HIV-1 RT wild-type (WT) (Human immunodeficiency virus type 1 group M subtype B, UniProt P03366).
T9 construct: an HIV RT clone pKRT2 containing only the RT p66 gene regulated by the lac operon/trc promoter; made in house; host or cells: E. coli JM109, vector pKK233-2
As to the kind of experiment: Reverse transcriptase (RT) assay, wild-type enzyme. Format: biochemical.
Description: as §2, §3, §4, §5

For test [12], the system named is HIV coding for mutant reverse transcriptase Y188L. As to the kind of experiment: ELISA (p24) assay of HIV replication in C8166 cell culture, Y188L virus. The test is classed as cell-based, HIV-1. The note with it: Human immunodeficiency virus 1, C8166, 72 h, read-out: EC50 Y188L. How it is done:
as §1

Test [13] deals with HIV coding for mutant reverse transcriptase V106A. As to the kind of experiment: ELISA (p24) assay of HIV replication in C8166 cell culture, V106A virus. Format: cell-based, HIV-1. The following applies: Human immunodeficiency virus 1, C8166, 72 h, read-out: EC50 V106A. The method, then:
as §1

For `CCN1c2ncc(CCOc3cccc4c3ccc[n+]4[O-])cc2C(=O)N(C)c2ccc(F)nc21` [compound 18, 5,11-Dihydro-11-ethyl-2-fluoro-5-methyl-8-{2-{(1-oxido-5-quinolinyl)-oxy}ethyl}-6H-dipyrido[3,2-b:2′,3′-e][1,4]diazepin-6-one], the EC50 was found to be 9.5 nM in test [1] and 0.34 nM in test [7]. Besides, the IC50 worked out at 1170 nM in [2]; 737 nM in test [3]; 37 nM in test [4]; 158 nM in test [5]; 41 nM in test [6]; 146 nM in test [8]. The 50% inhibitory concentration (IC50) turned out to be 20 nM in [9], 96 nM in [10] and 11 nM in test [11].

As to `CCN1c2ncc(CCOc3cc[n+]([O-])c4ccccc34)cc2C(=O)Nc2c(C)cc(F)nc21` [compound 9, 5,11-Dihydro-11-ethyl-2-fluoro-4-methyl-8-{2-{(1-oxido-4-quinolinyl)-oxy}ethyl}-6H-dipyrido[3,2-b:2′,3′-e][1,4]diazepin-6-one], the EC50 in [1] is 7.6 nM; in [12] it was 118 nM; in [7], 0.92 nM; in test [13], 5 nM. For the same compound, the 50% inhibitory concentration (IC50) in [2] was 3390 nM; in [3], 98 nM; in test [4] it was 23 nM; in test [5], 88 nM; in test [6], 43 nM; in [8] it was 175 nM. Further, the IC50 in test [9] amounted to 25 nM; in test [10], 58 nM; in test [11], 14 nM.

The IC50 is the midpoint of a concentration-inhibition curve.

(Values after patent US20020028807A1, “Non-nucleoside reverse transcriptase inhibitors” (priority 2000, published 2002).)
